Test results taken from patent publication US20110077206A1, “USE OF HNF4ALPHA FOR TREATMENT OF HUMAN MALIGNANT SOLID TUMORS THROUGH INDUCTION-DIFFERENTIATION THERAPY” (SECOND MILITARY MEDICAL UNIVERSITY, priority 2008, published 2011).

Experiments:
[1] = tested on: Human hepatoma cell lines HepG2 and Hep3B; test: Flow cytometry of CD133+ cell proportion; format: cell-based; conditions: data not shown
Protocol: 1. […] After 24 hrs, the medium was replaced with fresh DMEM culture solution containing 10% FBS. After three days, the cells were collected, and the CD133/1-PE (Miltenyi Biotec, Auburn, Calif.) was used as primary antibody for incubation, and the proportion of CD133+ cells was determined by flow cytometry.

[2] = tested on: Human hepatoma cell lines HepG2 and Hep3B; test: In vitro effects of control substances on hepatoma cell lines (RT-PCR, immunohistochemistry, morphology); format: cell-based; conditions: for apoptosis / proliferation: HepG2 and Hep3B; for regulation effect on in vitro differentiation of hepatocellular carcinoma cell lines: background statement of inventors' study
Protocol: Human hepatoma cell lines HepG2 and Hep3B were inoculated onto the six-well plate with a concentration of 5×10^5 cells/dish, and the all-trans retinoic acid, somatostatin, tumor necrosis factor, and arsenic trioxide were added respectively. The total RNA was extracted by Trizol kit, and reverse transcriptase reaction was carried out for 2 hrs. 1 μl diluted reverse transcription product was taken and used as template for PCR amplification to detect the mRNA expression of liver cell-related function genes. The proliferation and apoptosis related proteins such as Cyclin, Bax, Bcl-2 and so on was measured by immunohistochemistry.

[3] = tested on: solid tumors; test: In vivo study of control substances on solid tumor differentiation; conditions: background statement of inventors' study

Compound	differentiation induction effect on tumor stem cells [1]	apoptosis [2]	proliferation [2]	regulation effect on in vitro differentiation of hepatocellular carcinoma cell lines [2]	in vivo induction of differentiation of solid tumors [3]
arsenic trioxide	no significant differentiation induction effect	significantly increased	reduced	no drugs or proteins with clear differentiation therapy effects	can not effectively induce the differentiation of solid tumors
tumor necrosis factor		significantly increased	reduced	no drugs or proteins with clear differentiation therapy effects	can not effectively induce the differentiation of solid tumors
CC1=C(/C=C/C(C)=C/C=C/C(C)=C/C(=O)O)C(C)(C)CCC1 [all-trans retinoic acid]	no significant differentiation induction effect			no drugs or proteins with clear differentiation therapy effects	can not effectively induce the differentiation of solid tumors
